*1 amine or outer side, *2 acyl side, *3 side chain or, on linkers, in order; H or OH if unused. Where a SMILES comes first, the peptide text is derived from it. Bridges are numbered along the chain shown (N, C = ends). TATA = O=C(CC[*:1])N1CN(C(=O)CC[*:2])CN(C(=O)CC[*:3])C1
The compounds below were run against TSLP (Homo sapiens, UniProt Q969D9) (assay: Human TSLP Surface Plasmon Resonance (SPR) binding assay). Details: biotinylated human TSLP immobilized on streptavidin chip; 20° C.; steady-state or kinetic 1:1 fit; read-out: hTSLP SPR Kd.
Chain of TSLP (Q969D9 29-159): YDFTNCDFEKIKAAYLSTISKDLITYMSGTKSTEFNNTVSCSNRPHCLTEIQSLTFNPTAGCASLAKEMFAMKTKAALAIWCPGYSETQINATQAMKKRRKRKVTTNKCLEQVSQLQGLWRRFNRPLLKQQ
Design: The resulting construct spCD33-6×HN-TEV-hTSLP(29-159)-Avi; 6xHN tag with TEV site (N, cleaved yes); made in house; host or cells: Expi293F cells
`CC(=O)N[C@H]1CSCCC(=O)N2CN3CN(C2)C(=O)CCSC[C@H](NC(=O)[C@H](CC(=O)O)NC(=O)[C@H](CCC(=O)O)NC(=O)[C@H](CC(C)C)NC(=O)[C@H](Cc2c[nH]c4ccccc24)NC(=O)[C@H](CCC(N)=O)NC1=O)C(=O)N[C@@H](Cc1c[nH]c2ccccc12)C(=O)N[C@@H](CCONC(=N)N)C(=O)NCC(=O)N[C@@H](Cc1ccccc1)C(=O)N[C@H](C(N)=O)CSCCC3=O` [Example 131, Ac-(SEQ ID NO: 92)] gave a Kd of 400 nM. `CC(=O)N[C@H]1CSCCC(=O)N2CN3CN(C2)C(=O)CCSC[C@H](NC(=O)[C@H](CC(=O)O)NC(=O)[C@H](CCC(=O)O)NC(=O)[C@H](CC(C)C)NC(=O)[C@H](Cc2c[nH]c4ccccc24)NC(=O)[C@H](CCC(N)=O)NC1=O)C(=O)N[C@@H](Cc1c[nH]c2ccccc12)C(=O)N[C@@H](CCCNC(=N)N)C(=O)NCC(=O)N[C@@H](Cc1cccs1)C(=O)N[C@H](C(N)=O)CSCCC3=O` [Example 135, Ac-(SEQ ID NO: 96)] gave a Kd of 490 nM. Work on `CC(C)C[C@@H]1NC(=O)[C@H](Cc2c[nH]c3ccccc23)NC(=O)[C@H](CC(=O)O)NC(=O)[C@@H](NC(=O)[C@H](C)N)CSCCC(=O)N2CN3CN(C2)C(=O)CCSC[C@H](NC(=O)[C@H](CC(=O)O)NC(=O)[C@H](CC(=O)O)NC1=O)C(=O)N[C@@H](Cc1c[nH]c2ccccc12)C(=O)N[C@@H](CCCCN)C(=O)NCC(=O)N[C@@H](Cc1ccccc1)C(=O)N[C@H](C(=O)N[C@@H](C)C(N)=O)CSCCC3=O` [Example 141, A-(SEQ ID NO: 100)-A] (H-ACDWLDDCWKGFCA-NH2; linker 2-8-13 via TATA; N-terminus and C-terminus assumed) yielded a Kd of 600 nM. `COc1ccc(C[C@@H]2NC(=O)CNC(=O)[C@H](CCCNC(=N)N)NC(=O)[C@H](Cc3c[nH]c4ccccc34)NC(=O)[C@@H]3CSCCC(=O)N4CN(CN(C4)C(=O)CCSC[C@H](NC(C)=O)C(=O)N[C@@H](CCC(N)=O)C(=O)N[C@@H](Cc4c[nH]c5ccccc45)C(=O)N[C@@H](CC(C)C)C(=O)N[C@@H](CCC(=O)O)C(=O)N[C@@H](CC(=O)O)C(=O)N3)C(=O)CCSC[C@@H](C(N)=O)NC2=O)cc1` [Example 142, Ac-(SEQ ID NO: 101)] gave a Kd of 710 nM. Work on `CC(=O)N[C@H]1CSCCC(=O)N2CN3CN(C2)C(=O)CCSC[C@H](NC(=O)[C@H](CC(=O)O)NC(=O)[C@H](CCC(=O)O)NC(=O)[C@H](CC(C)C)NC(=O)[C@H](Cc2c[nH]c4ccccc24)NC(=O)[C@H](CCC(N)=O)NC1=O)C(=O)N[C@@H](Cc1c[nH]c2ccccc12)C(=O)N[C@@H](CCCNC(=N)N)C(=O)NCC(=O)N[C@@H](Cc1cccc(Br)c1)C(=O)N[C@H](C(N)=O)CSCCC3=O` [Example 143, Ac-(SEQ ID NO: 102)] yielded a Kd of 750 nM. `CC(=O)N[C@H]1CSCCC(=O)N2CN3CN(C2)C(=O)CCSC[C@H](NC(=O)[C@H](CC(=O)O)NC(=O)[C@H](CCC(=O)O)NC(=O)[C@H](CC(C)C)NC(=O)[C@H](Cc2c[nH]c4ccccc24)NC(=O)[C@H](CCC(N)=O)NC1=O)C(=O)N[C@@H](Cc1c[nH]c2ccccc12)C(=O)N[C@@H](CCCNC(=N)N)C(=O)NCC(=O)N[C@@H](Cc1ccccn1)C(=O)N[C@H](C(N)=O)CSCCC3=O` [Example 146, Ac-(SEQ ID NO: 105)] showed a Kd of 910 nM. `CC(=O)N[C@H]1CSCCC(=O)N2CN3CN(C2)C(=O)CCSC[C@H](NC(=O)[C@H](CC(=O)O)NC(=O)[C@H](CCC(=O)O)NC(=O)[C@H](CC[S+](C)[O-])NC(=O)[C@H](Cc2c[nH]c4ccccc24)NC(=O)[C@H](CCC(N)=O)NC1=O)C(=O)N[C@@H](Cc1c[nH]c2ccccc12)C(=O)N[C@@H](CCCNC(=N)N)C(=O)NCC(=O)N[C@@H](Cc1ccccc1)C(=O)N[C@H](C(N)=O)CSCCC3=O` (some centres unmarked) [Example 147, Ac-(SEQ ID NO: 106)] showed a Kd of 940 nM. Compound `CC(=O)N[C@H]1CSCCC(=O)N2CN3CN(C2)C(=O)CCSC[C@H](NC(=O)[C@H](CC(=O)O)NC(=O)[C@H](CCC(=O)O)NC(=O)[C@H](CC(C)C)NC(=O)[C@H](Cc2c[nH]c4ccccc24)NC(=O)[C@H](CCC(N)=O)NC1=O)C(=O)N[C@@H](Cc1c[nH]c2ccccc12)C(=O)N[C@@H](CCCNC(=N)N)C(=O)NCC(=O)N[C@@H](CCc1ccccc1)C(=O)N[C@H](C(N)=O)CSCCC3=O` [Example 148, Ac-(SEQ ID NO: 107)] has a Kd of 1100 nM. For `CC(=O)N[C@H]1CSCCC(=O)N2CN3CN(C2)C(=O)CCSC[C@H](NC(=O)[C@H](CC(=O)O)NC(=O)[C@H](CCC(=O)O)NC(=O)[C@H](CC(C)C)NC(=O)[C@H](Cc2c[nH]c4ccccc24)NC(=O)[C@H](CCC(N)=O)NC1=O)C(=O)N[C@@H](Cc1c[nH]c2ccccc12)C(=O)N[C@@H](C)C(=O)NCC(=O)N[C@@H](Cc1ccccc1)C(=O)N[C@H](C(N)=O)CSCCC3=O` [Example 149, Ac-(SEQ ID NO: 108)], the Kd was 1100 nM. With `CC[C@H](C)[C@@H]1NC(=O)[C@H]([C@@H](C)O)NC(=O)[C@@H](NC(=O)[C@H](C)N)CSCCC(=O)N2CN3CN(C2)C(=O)CCSC[C@H](NC(=O)[C@H](CC(=O)O)NC(=O)[C@H](CCC(=O)O)NC(=O)[C@H](CC(C)C)NC1=O)C(=O)N[C@@H](Cc1c[nH]c2ccccc12)C(=O)N[C@@H](CCSC)C(=O)NCC(=O)N[C@@H](Cc1ccccc1)C(=O)N[C@H](C(=O)N[C@@H](C)C(N)=O)CSCCC3=O` [Example 150, A-(SEQ ID NO: 109)-A] the Kd was 1500 nM. `CC(=O)N[C@H]1CSCCC(=O)N2CN3CN(C2)C(=O)CCSC[C@H](NC(=O)[C@H](CC(=O)O)NC(=O)[C@H](CCC(=O)O)NC(=O)[C@H](CC(C)C)NC(=O)[C@H](Cc2c[nH]c4ccccc24)NC(=O)[C@H](CCC(N)=O)NC1=O)C(=O)N[C@@H](Cc1c[nH]c2ccccc12)C(=O)N[C@@H](CCCNC(=N)N)C(=O)NCC(=O)N[C@@H](Cc1c(F)c(F)c(F)c(F)c1F)C(=O)N[C@H](C(N)=O)CSCCC3=O` [Example 153, Ac-(SEQ ID NO: 112)] showed a Kd of 2700 nM. `CC(=O)N[C@H]1CSCCC(=O)N2CN3CN(C2)C(=O)CCSC[C@H](NC(=O)[C@H](CC(=O)O)NC(=O)[C@H](CCC(=O)O)NC(=O)[C@H](CC(C)C)NC(=O)[C@H](Cc2c[nH]c4ccccc24)NC(=O)[C@H](CCC(N)=O)NC1=O)C(=O)N[C@@H](Cc1c[nH]c2ccccc12)C(=O)N[C@@H](CN)C(=O)NCC(=O)N[C@@H](Cc1ccccc1)C(=O)N[C@H](C(N)=O)CSCCC3=O` [Example 155, Ac-(SEQ ID NO: 114)] showed a Kd of 3200 nM. `CC(C)C[C@@H]1NC(=O)[C@H](Cc2c[nH]c3ccccc23)NC(=O)[C@H](CCC(N)=O)NC(=O)[C@@H](N)CSCCC(=O)N2CN3CN(C2)C(=O)CCSC[C@H](NC(=O)[C@H](CC(=O)O)NC(=O)[C@H](CCC(=O)O)NC1=O)C(=O)N[C@@H](Cc1c[nH]c2ccccc12)C(=O)N[C@@H](CN)C(=O)NCC(=O)N[C@@H](Cc1ccccc1)C(=O)N[C@H](C(N)=O)CSCCC3=O` [Example 156, (SEQ ID NO: 114)] showed a Kd of 3300 nM. `CC(=O)N[C@H]1CSCCC(=O)N2CN3CN(C2)C(=O)CCSC[C@H](NC(=O)[C@H](CC(=O)O)NC(=O)[C@H](CCC(=O)O)NC(=O)[C@H](CC(C)C)NC(=O)[C@H](Cc2c[nH]c4ccccc24)NC(=O)[C@H](CCC(N)=O)NC1=O)C(=O)N[C@@H](Cc1c[nH]c2ccccc12)C(=O)N[C@@H](CCCNC(=N)N)C(=O)NCC(=O)N[C@@H](Cc1ccncc1)C(=O)N[C@H](C(N)=O)CSCCC3=O` [Example 157, Ac-(SEQ ID NO: 115)] showed a Kd of 3900 nM.

Source: patent US11866518B2, “Bicyclic peptide ligands specific for TSLP” (BicycleTx Limited, priority 2020, dated 2024)
